Laboratory results published in PMC9728921, “Characterization of a KDM5 small molecule inhibitor with antiviral activity against hepatitis B virus” (PLOS ONE, 2022).

Legend:
KDM5B = molecular target: T1, KDM5B (Homo sapiens, UniProt Q9UGL1); experiment: KDM5B enzymatic assay (CisBio HTRF); type: biochemical
T1 construct: purchased Reaction Biology Corp (assay run there as a contract service)
Description: KDM5A and 5B were tested using CisBio HTRF assay platform by Reaction Biology Corp (Malvern, PA). All concentrations are final unless noted otherwise. Inhibitors were pre-incubated with 2.5 nM KDM5A or 1.2 nM KDM5B in a 5 μL reaction mixture containing 50 mM HEPES (pH 7.5), 50 mM NaCl, 0.01% Tween 20, 0.01% BSA for 15 min temperature. The reaction was initiated by addition of 5 μL of 50 nM Biotin-H3K4me3 and incubated with gentle shaking for 45 min at RT. The reaction was quenched with 10 mM EDTA and 200 mM potassium fluoride. Upon addition of Eu-Antibody and Streptavidine-XL665, the mixture was incubated for 2 hours in the dark. The fluorescence resonance energy transfer was measured using an excitation wavelength of 320 nm and emission wavelength of 665 nm on an Envision plate reader (Perkin Elmer).
(§1) Data was analyzed using GraphPad Prism 6.0 (La Jolla, CA). […] IC50 values were calculated as an average of at least two independent experiments.

KDM6A = KDM6A (Homo sapiens, UniProt O15550); experiment: KDM6A enzymatic assay (AlphaLISA); type: biochemical
Description: The following assay protocol was used for all histone demethylases tested except KDM1A, KDM5A, B, and D, which are described below. Compounds were serially diluted into a 384-well Alpha plate as a DMSO solution and mixed with 5 μL reaction buffer (buffer A) containing 50 mM HEPES (pH 7.0), 0.1% BSA, and 0.003% Tween-20. The enzyme of interest was pre-incubated with 15 μM of Fe^2+ for 10 min (except 30 min for KDM2B) in reaction buffer A. 5 μL of the enzyme mixture was added to each of the compound-containing wells and incubated for 10 min. The reaction was started by addition of a 5 μL mixture containing 300 nM peptide substrate, 75 μM L-ascorbic acid, and 30 μM α-ketoglutarate in buffer A. This final 15 μL of reaction mixture was incubated for 20 min for KDM5B and 1 hour for the other KDM enzymes. The reaction was quenched with 10 μL of diluted AlphaLISA Acceptor beads (1:400) in Epigenetics Buffer and incubated for 60 min. The Donor beads were diluted 1:400 into Epigenetics Buffer in the dark and 10 μL of this was added to each well and incubated for another 60 min in the dark. The assay plates were read on an Enspire plate reader (PerkinElmer) using a standard AlphaLISA program.
as §1

SET7/9 = molecular target: T2, SET7/9 (Homo sapiens, UniProt Q8WTS6); experiment: Histone methyltransferase enzymatic assay, SET7/9; type: biochemical; conditions: enzyme conc. 100 nM
T2 construct: 2-366; purchased RBC (read as Reaction Biology Corporation, named)
Description: (§2) Histone methyltransferase assays were performed in 96-well half-area optiplates (PerkinElmer) at room temperature. All concentrations are final unless noted otherwise. Compounds were serially diluted in DMSO and the final DMSO concentration was 1%. A 24 μL reaction mixture contained compound, enzyme, 200 nM of nucleosome or histone substrate, 400 nM ^3H-SAM (83.1 Ci/mmol), 50 mM Tris-HCl (pH 8.0), 50 mM NaCl, 5 mM MgCl2, 1 mM DTT, and 0.01% Tween-20. The plate was sealed, mixed on a Titramax plate shaker at 1200 rpm for 30 sec, and incubated at room temperature for 60 min. The reaction was quenched by addition of 24 μL mixture containing 5 mg/mL PVT-PEI beads and 300 μM unlabeled SAM in water. The plate was sealed, mixed as previously noted, incubated overnight, and read on a TopCount plate reader (PerkinElmer).
as §1

EZH2/EED/SUZ12 = molecular target: T3, EZH2/EED/SUZ12 (Homo sapiens, UniProt O75530+Q15022+Q15910); experiment: Histone methyltransferase enzymatic assay, EZH2/EED/SUZ12; type: biochemical; conditions: enzyme conc. 100 nM
T3 construct: 2-746/2-441/2-739; purchased BPS
Description: as §2, §1

H3K4 methylation = experiment: Histone mass spectrometry of H3K4 methylation in PHH; type: cell-based, human; conditions: uninfected PHH; 10 μM every 3 days; Day 7
Description: Approximately 25 million PHH from Donor (Bioreclamation) were plated on collagen coated (Coating Matrix kit, Life Technologies, Cat. #R-011-K) plates (coated for 30 minutes at 37°C and subsequently washed twice with PHH plating medium). The PHH plating medium was removed after 16 hours and replaced with PHH maintenance medium (Day 0). […] Modifications to the manufacturer’s protocol included two PBS washes prior to adding the histone extraction buffer to the cells, precipitation of eluted histones in 8% perchloric acid, and a single wash in cold acetone containing 0.2% HCl.
Fresh 1:100 propionic anhydride:water reagent was prepared and 1 μl of mixture was added immediately to the histone sample with vortexing and incubated for 5 minutes at 25°C. The reaction was quenched with 1 μl of 80 mM hydroxylamine for 20 minutes at 25°C. […]
1 μl of sample was injected using a Thermo Fischer Scientific Ultimate 3000 Autosampler (San Jose, CA) onto a 15 cm x 75 μm Thermo Fischer Scientific ES812 Easyspray nano column with 5 μm particle size. […] Each sample was analyzed three times.
Data was searched using Thermo Fischer Scientific Proteome Discoverer V2.1 software. […] The ratio of drug treated/control was calculated for each sample and then corrected using the average protein level ratio to account for differences in total protein between control and treated samples.

T1 sequence (Q9UGL1 whole entry): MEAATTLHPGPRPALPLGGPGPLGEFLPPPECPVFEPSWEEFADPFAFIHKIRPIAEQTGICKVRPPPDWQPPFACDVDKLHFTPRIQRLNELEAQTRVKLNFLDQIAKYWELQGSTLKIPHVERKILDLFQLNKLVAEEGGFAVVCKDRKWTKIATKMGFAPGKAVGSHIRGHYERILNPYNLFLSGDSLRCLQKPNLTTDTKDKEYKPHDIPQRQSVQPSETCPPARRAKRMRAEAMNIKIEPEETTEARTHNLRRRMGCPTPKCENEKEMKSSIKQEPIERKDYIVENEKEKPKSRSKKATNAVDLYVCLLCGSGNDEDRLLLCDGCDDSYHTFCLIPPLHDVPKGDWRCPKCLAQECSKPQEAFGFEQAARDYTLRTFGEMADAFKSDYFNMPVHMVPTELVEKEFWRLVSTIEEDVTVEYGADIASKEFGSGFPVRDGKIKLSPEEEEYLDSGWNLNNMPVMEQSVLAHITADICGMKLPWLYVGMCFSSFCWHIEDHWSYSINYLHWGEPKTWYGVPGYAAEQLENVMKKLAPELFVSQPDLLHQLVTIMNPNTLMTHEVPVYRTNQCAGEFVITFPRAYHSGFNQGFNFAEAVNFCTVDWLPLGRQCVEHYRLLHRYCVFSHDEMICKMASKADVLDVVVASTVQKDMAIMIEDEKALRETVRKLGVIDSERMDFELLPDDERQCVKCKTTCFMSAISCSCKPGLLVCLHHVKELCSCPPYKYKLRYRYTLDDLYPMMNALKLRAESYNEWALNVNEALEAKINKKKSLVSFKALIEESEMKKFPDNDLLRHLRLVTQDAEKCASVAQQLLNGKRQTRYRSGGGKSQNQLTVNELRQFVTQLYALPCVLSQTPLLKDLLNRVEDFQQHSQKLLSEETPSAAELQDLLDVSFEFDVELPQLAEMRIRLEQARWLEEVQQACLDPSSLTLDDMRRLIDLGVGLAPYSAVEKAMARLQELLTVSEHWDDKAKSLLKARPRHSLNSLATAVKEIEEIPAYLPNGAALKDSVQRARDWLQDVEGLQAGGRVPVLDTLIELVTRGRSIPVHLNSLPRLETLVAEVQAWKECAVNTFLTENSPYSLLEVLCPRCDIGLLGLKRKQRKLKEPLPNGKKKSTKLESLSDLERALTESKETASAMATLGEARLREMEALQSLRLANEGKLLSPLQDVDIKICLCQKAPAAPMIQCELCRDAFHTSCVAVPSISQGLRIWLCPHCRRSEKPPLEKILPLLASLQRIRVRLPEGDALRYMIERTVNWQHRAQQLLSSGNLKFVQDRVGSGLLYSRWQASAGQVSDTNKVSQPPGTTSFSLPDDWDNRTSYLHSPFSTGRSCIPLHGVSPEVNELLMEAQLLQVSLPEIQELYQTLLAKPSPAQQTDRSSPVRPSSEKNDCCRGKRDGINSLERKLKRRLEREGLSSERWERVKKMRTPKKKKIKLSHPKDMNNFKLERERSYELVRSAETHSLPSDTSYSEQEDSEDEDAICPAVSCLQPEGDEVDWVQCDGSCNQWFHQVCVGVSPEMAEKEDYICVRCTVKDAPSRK
KDM6A, sequence (O15550 whole entry): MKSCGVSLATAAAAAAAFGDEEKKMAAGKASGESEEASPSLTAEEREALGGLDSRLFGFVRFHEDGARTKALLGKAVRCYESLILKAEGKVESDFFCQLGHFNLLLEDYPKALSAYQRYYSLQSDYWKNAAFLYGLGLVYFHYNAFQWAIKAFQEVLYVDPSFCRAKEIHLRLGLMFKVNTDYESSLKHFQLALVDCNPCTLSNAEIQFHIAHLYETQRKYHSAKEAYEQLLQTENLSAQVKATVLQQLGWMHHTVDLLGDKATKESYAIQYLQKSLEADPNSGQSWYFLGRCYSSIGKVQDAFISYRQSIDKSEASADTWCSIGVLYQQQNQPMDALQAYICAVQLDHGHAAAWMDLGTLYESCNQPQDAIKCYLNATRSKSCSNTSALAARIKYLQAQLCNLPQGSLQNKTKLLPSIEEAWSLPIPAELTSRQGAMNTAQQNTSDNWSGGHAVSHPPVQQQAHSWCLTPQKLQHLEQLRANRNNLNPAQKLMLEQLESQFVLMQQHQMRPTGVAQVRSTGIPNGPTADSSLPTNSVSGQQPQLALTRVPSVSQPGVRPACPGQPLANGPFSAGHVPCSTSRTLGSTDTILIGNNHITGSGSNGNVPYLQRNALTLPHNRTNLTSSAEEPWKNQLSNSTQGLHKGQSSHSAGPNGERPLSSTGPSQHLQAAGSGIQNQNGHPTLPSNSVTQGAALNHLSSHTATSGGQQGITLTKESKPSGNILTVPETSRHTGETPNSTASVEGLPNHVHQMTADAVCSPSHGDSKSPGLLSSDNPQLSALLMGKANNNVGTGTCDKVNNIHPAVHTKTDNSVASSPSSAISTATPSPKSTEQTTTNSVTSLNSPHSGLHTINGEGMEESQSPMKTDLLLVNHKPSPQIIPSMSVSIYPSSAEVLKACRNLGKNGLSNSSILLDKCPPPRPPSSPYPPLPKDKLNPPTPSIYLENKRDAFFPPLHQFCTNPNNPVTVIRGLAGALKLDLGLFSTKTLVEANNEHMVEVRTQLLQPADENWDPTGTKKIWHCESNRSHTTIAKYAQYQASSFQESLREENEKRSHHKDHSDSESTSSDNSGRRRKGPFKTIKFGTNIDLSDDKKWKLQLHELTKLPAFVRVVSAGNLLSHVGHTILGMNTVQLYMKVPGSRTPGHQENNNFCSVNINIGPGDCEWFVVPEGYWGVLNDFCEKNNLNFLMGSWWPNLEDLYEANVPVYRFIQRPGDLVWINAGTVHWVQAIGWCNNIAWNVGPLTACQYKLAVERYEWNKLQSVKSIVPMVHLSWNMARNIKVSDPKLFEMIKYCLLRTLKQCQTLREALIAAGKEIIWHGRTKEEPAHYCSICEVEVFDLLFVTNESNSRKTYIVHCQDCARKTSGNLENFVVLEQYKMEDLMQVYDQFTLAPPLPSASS
T3 sequence (Q15910 2-746): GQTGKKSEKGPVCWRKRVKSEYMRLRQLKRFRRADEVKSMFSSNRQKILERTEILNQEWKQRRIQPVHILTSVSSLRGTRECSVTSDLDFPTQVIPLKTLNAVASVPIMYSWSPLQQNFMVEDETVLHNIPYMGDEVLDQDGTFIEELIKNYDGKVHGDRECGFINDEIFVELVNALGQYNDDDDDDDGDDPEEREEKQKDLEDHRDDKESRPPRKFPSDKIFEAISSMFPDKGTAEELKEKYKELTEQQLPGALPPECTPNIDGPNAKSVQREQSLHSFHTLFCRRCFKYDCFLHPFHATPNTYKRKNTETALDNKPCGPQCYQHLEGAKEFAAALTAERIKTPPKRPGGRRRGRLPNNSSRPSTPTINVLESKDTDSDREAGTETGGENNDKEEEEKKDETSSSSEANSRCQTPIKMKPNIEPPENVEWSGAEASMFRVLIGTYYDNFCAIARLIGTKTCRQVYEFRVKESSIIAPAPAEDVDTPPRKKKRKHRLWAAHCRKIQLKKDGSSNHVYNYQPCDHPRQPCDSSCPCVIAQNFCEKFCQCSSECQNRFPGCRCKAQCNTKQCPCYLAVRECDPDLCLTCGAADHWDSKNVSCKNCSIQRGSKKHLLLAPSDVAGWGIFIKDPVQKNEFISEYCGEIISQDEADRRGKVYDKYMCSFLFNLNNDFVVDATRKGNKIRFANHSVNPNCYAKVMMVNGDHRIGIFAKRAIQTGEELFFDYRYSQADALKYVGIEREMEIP
T3 sequence (O75530 2-441 partner limits assumed): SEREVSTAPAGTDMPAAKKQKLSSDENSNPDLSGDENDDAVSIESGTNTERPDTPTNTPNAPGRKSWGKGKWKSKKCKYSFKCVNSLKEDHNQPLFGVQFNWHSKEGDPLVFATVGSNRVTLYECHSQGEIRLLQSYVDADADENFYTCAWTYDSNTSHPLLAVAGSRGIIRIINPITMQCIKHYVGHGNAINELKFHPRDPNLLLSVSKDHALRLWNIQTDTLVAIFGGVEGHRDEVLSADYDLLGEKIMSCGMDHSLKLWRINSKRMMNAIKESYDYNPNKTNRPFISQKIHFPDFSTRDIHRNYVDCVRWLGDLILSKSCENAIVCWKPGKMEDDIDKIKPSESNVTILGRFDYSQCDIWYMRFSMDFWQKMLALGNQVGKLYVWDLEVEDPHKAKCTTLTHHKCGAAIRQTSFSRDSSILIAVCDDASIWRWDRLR
T3 sequence (Q15022 2-739 partner limits assumed): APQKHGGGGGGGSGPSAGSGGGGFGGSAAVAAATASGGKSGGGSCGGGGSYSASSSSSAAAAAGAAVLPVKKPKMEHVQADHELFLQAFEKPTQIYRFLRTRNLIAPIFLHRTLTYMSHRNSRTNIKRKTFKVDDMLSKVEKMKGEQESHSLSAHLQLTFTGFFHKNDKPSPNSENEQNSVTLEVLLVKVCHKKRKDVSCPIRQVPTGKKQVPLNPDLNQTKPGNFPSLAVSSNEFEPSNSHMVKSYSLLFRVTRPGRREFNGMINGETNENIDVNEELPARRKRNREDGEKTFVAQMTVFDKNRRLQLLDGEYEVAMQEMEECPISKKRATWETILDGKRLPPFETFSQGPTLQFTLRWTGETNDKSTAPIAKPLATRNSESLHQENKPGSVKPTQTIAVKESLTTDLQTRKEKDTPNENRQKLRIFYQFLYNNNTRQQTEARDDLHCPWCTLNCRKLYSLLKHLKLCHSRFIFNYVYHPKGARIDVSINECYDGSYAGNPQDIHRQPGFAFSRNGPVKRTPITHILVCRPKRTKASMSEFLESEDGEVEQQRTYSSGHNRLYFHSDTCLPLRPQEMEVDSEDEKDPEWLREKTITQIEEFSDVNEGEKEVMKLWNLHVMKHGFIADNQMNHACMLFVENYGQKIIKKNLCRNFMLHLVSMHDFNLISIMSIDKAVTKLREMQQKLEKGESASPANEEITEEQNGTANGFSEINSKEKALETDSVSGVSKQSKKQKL

Row | Fold Selectivity Compared to KDM5A (KDM5B; IC50 of KDM5B over KDM5A) | IC50 (KDM5B; enzyme concentration 1.2 nM, IC50 lower than enzyme concentration, likely underestimates potency) | Fold Selectivity Compared to KDM5A (KDM6A; IC50 of KDM6A over KDM5A) | IC50 (KDM6A; enzyme concentration 2 nM) | IC50 (SET7/9) | IC50 (EZH2/EED/SUZ12) | SMILES | change in H3K4 methylation species by quantitative mass spectrometry (H3K4 methylation)
1 | 1 fold | 0.00038 µM | > 17,200 fold | 6.2 µM | > 100 µM | > 100 µM | CCN(CCN(C)C)C(=O)CNCc1cc(C(=O)O)ccn1 [GS-080] | –
2 | – | – | – | – | – | – | CCOC(=O)c1ccnc(CNCC(=O)N(CC)CCN(C)C)c1 [GS-5801] | predominantly caused an increase in trimethylated H3K4 (H3K4me3)
